Reference: patent US8952024B2, “Herbicidal pyrimidone derivatives” (E I du Pont de Nemours and Company, priority 2009, dated 2015)

Tests used:
Format in all cases: in vivo
[1] = system: umbrella sedge (Cyperus difformis); assay: Test B flooded paddy test; settings: for Plant response rating, Flood, Sedge, Umbrella: 250 g ai/ha, flooded paddy test, visual rating on 0 to 100 scale (0 no effect, 100 complete control) after 13 to 15 days; for Plant response rating, Sedge, Umbrella: Flood (flooded paddy test), 62 g ai/ha, scale of 0 to 100 where 0 is no effect and 100 is complete control, 13 to 15 days
How it was run: (§1)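 Visual scores run from 0 (no effect) to 100 (complete control), assigned by comparison with controls 13 to 15 days after treatment. Test compounds went straight into water standing 3 cm above the soil, around plants at the 2-leaf stage kept in a greenhouse.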

[2] = system: barnyardgrass (Echinochloa crus-galli); assay: Test B flooded paddy test; settings: for Plant response rating, Flood, Barnyardgrass: 250 g ai/ha, flooded paddy test, visual rating on 0 to 100 scale (0 no effect, 100 complete control) after 13 to 15 days; for Plant response rating, Barnyardgrass: Flood (flooded paddy test), 62 g ai/ha, scale of 0 to 100 where 0 is no effect and 100 is complete control, 13 to 15 days
How it was run: as §1

rice (Oryza sativa) = assay: Test B flooded paddy test; settings: for Plant response rating, Flood, Rice: 250 g ai/ha, flooded paddy test, visual rating on 0 to 100 scale (0 no effect, 100 complete control) after 13 to 15 days; for Plant response rating, Rice: Flood (flooded paddy test), 62 g ai/ha, scale of 0 to 100 where 0 is no effect and 100 is complete control, 13 to 15 days
How it was run: as §1

[3] = system: ducksalad (Heteranthera limosa); assay: Test B flooded paddy test; settings: for Plant response rating, Flood, Ducksalad: 250 g ai/ha, flooded paddy test, visual rating on 0 to 100 scale (0 no effect, 100 complete control) after 13 to 15 days; for Plant response rating, Ducksalad: Flood (flooded paddy test), 62 g ai/ha, scale of 0 to 100 where 0 is no effect and 100 is complete control, 13 to 15 days
How it was run: as §1

[4] = system: winter barley (Hordeum vulgare); assay: Test B postemergence plant response; settings: for Barley plant response rating (0 to 100 scale): 62 g ai/ha, 0 is no effect, 13 to 15 days
How it was run: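 Plants at the 1- to 4-leaf stage (2 to 18 cm tall), grown in pots of peat moss/vermiculite medium with wetting agent and starter nutrients, received postemergence applications of test chemicals. After 13 to 15 days in a greenhouse, injury was rated visually against untreated controls on a 0 (no effect) to 100 (complete control) scale.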

[5] = system: wheat (Triticum aestivum); assay: Test A pre-/postemergence plant response
How it was run: (§2)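 Plants grown from seed in a loam soil and sand mix received test compounds both as a preemergence soil spray and, at the same time, as a postemergence spray at the one- to two-leaf stage. Injury was judged visually against untreated controls roughly ten days later, 0 meaning no effect and 100 complete control.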

[6] = system: barnyardgrass (Echinochloa crus-galli); assay: Test A pre-/postemergence plant response
How it was run: as §2

[7] = system: giant foxtail (Setaria faberii); assay: Test A pre-/postemergence plant response
How it was run: as §2

corn (Zea mays) = assay: Test A pre-/postemergence plant response
How it was run: as §2

[8] = system: morningglory (Ipomoea spp.); assay: Test A pre-/postemergence plant response
How it was run: as §2

[9] = system: pigweed (Amaranthus retroflexus); assay: Test A pre-/postemergence plant response
How it was run: as §2

[10] = system: velvetleaf (Abutilon theophrasti); assay: Test A pre-/postemergence plant response
How it was run: as §2

[11] = system: large crabgrass (Digitaria sanguinalis); assay: Test A pre-/postemergence plant response
How it was run: as §2

[12] = 31 g ai/ha, postemergence, scale 0 to 100, 0 is no effect, 100 is complete control
[13] = postemergence, 100 is complete control
[14] = Postemergence, 250 g ai/ha, scale 0 to 100 (0 no effect, 100 complete control)
[15] = Postemergence, 125 g ai/ha, 0 to 100 scale where 0 is no effect and 100 is complete control
[16] = Postemergence, 500 g ai/ha, 0 to 100 scale, 0 = no effect, 100 = complete control, approx. ten days
[17] = Preemergence, 125 g ai/ha, 0 to 100 scale, 0 = no effect, 100 = complete control
[18] = Preemergence, 500 g ai/ha, visual injury, 0 to 100 scale (0 no effect, 100 complete control), approx. ten days

COCCCn1c(-c2cccc(C)c2)ncc(C(=O)C2=C(O)CCCC2=O)c1=O [Compound 118, 5-[(2-hydroxy-6-oxo-1-cyclohexane-1-yl)carbonyl]-3-(3-methoxypropyl)-2-(3-methylphenyl)-4(3H)-pyrimidinone]
Plant response rating, Flood, Sedge, Umbrella [1]: 85
Plant response rating, Sedge, Umbrella [1]: 70
Plant response rating, Flood, Barnyardgrass [2]: 70
Plant response rating, Barnyardgrass [2]: 50
Plant response rating, Flood, Rice (rice (Oryza sativa)): 15
Plant response rating, Rice (rice (Oryza sativa)): 0
Plant response rating, Flood, Ducksalad [3]: 100
Plant response rating, Ducksalad [3]: 100
Plant response rating, Barley [4, 12]: 0
Barley plant response rating (0 to 100 scale) [4, 13]: 0
Plant response rating, Barley ([4]; Postemergence, 125 g ai/ha, scale 0 to 100 (0 no effect, 100 complete control)): 0
Plant response rating, Barley [4, 14]: 0
Plant response rating, Wheat [5, 15]: 0
Plant response rating, Wheat [5, 16]: 10
Plant response rating, Wheat [5, 17]: 0
Plant response rating, Wheat [5, 18]: 0
Plant response rating, Barnyardgrass [6, 15]: 90
Plant response rating, Barnyardgrass [6, 16]: 90
Plant response rating, Barnyardgrass [6, 17]: 30
Plant response rating, Barnyardgrass [6, 18]: 90
Plant response rating, Foxtail, Giant [7, 15]: 80
Plant response rating, Foxtail, Giant [7, 16]: 90
Plant response rating, Foxtail, Giant [7, 17]: 10
Plant response rating, Foxtail, Giant [7, 18]: 50
Plant response rating, Corn (corn (Zea mays); [15]): 0
Plant response rating, Corn (corn (Zea mays); [16]): 30
Plant response rating, Corn (corn (Zea mays); [17]): 0
Plant response rating, Corn (corn (Zea mays); [18]): 0
Plant response rating, Morningglory [8, 15]: 100
Plant response rating, Morningglory [8, 16]: 100
Plant response rating, Morningglory [8, 17]: 10
Plant response rating, Morningglory [8, 18]: 70
Plant response rating, Pigweed [9, 15]: 100
Plant response rating, Pigweed [9, 16]: 100
Plant response rating, Pigweed [9, 17]: 90
Plant response rating, Pigweed [9, 18]: 100
Plant response rating, Velvetleaf [10, 15]: 100
Plant response rating, Velvetleaf [10, 16]: 100
Plant response rating, Velvetleaf [10, 17]: 70
Plant response rating, Velvetleaf [10, 18]: 80
Plant response rating, Crabgrass, Large [11, 15]: 90
Plant response rating, Crabgrass, Large [11, 16]: 90
Plant response rating, Crabgrass, Large [11, 17]: 60
Plant response rating, Crabgrass, Large [11, 18]: 90

CCCc1ncc(C(=O)C2=C(O)CCCC2=O)c(=O)n1CC1CCCO1 (stereo not shown) [Compound 74]
Plant response rating, Flood, Sedge, Umbrella [1]: 60
Plant response rating, Sedge, Umbrella [1]: 30
Plant response rating, Flood, Barnyardgrass [2]: 40
Plant response rating, Barnyardgrass [2]: 0
Plant response rating, Flood, Rice (rice (Oryza sativa)): 0
Plant response rating, Rice (rice (Oryza sativa)): 0
Plant response rating, Flood, Ducksalad [3]: 0
Plant response rating, Ducksalad [3]: 0
Plant response rating, Barley [4, 12]: 0
Barley plant response rating (0 to 100 scale) [4, 13]: 0
Plant response rating, Barley ([4]; Postemergence, 125 g ai/ha, visual rating after 13 to 15 days, scale 0 (no effect) to 100 (complete control)): 0
Plant response rating, Barley [4, 14]: 0
Plant response rating, Wheat [5, 15]: 0
Plant response rating, Wheat [5, 16]: 20
Plant response rating, Wheat [5, 17]: 0
Plant response rating, Wheat [5, 18]: 0
Plant response rating, Barnyardgrass [6, 15]: 80
Plant response rating, Barnyardgrass [6, 16]: 90
Plant response rating, Barnyardgrass [6, 17]: 30
Plant response rating, Barnyardgrass [6, 18]: 60
Plant response rating, Foxtail, Giant [7, 15]: 40
Plant response rating, Foxtail, Giant [7, 16]: 80
Plant response rating, Foxtail, Giant [7, 17]: 0
Plant response rating, Foxtail, Giant [7, 18]: 40
Plant response rating, Corn (corn (Zea mays); [15]): 0
Plant response rating, Corn (corn (Zea mays); [16]): 20
Plant response rating, Corn (corn (Zea mays); [17]): 0
Plant response rating, Corn (corn (Zea mays); [18]): 0
Plant response rating, Morningglory [8, 15]: 90
Plant response rating, Morningglory [8, 16]: 100
Plant response rating, Morningglory [8, 17]: 40
Plant response rating, Morningglory [8, 18]: 60
Plant response rating, Pigweed [9, 15]: 100
Plant response rating, Pigweed [9, 16]: 100
Plant response rating, Pigweed [9, 17]: 90
Plant response rating, Pigweed [9, 18]: 100
Plant response rating, Velvetleaf [10, 15]: 90
Plant response rating, Velvetleaf [10, 16]: 100
Plant response rating, Velvetleaf [10, 17]: 70
Plant response rating, Velvetleaf [10, 18]: 90
Plant response rating, Crabgrass, Large [11, 15]: 90
Plant response rating, Crabgrass, Large [11, 16]: 90
Plant response rating, Crabgrass, Large [11, 17]: 70
Plant response rating, Crabgrass, Large [11, 18]: 90
